Where no end group is shown, it is not given here.
Test system: CCR5-1like
Assay: BRET CAMYEL Gαi signaling via chimeric receptor M1-CCR5-1like
Assay type: cell-based, human
Details: n = 3
Source text: To finally determine if the lack of acidic amino acids in the CCR5 N-terminus can explain the dependency of this receptor on O-glycosylation for effective ligand interaction, we constructed a CCR5 receptor chimera, where the most acidic N-terminal region of CCR1 was inserted into the CCR5 N-terminus, creating the chimeric receptor CCR5-1like (Figure 7).
Figure 7 Receptor N-termini representing CCR1, CCR5, and the chimeric CCR5-1like. The CCR1 N-terminus contains a lot of acidic amino acids (outlined in red) in the form of aspartic acid (D) and glutamic acid (E), whereas CCR5 only contains a few. The chimeric receptor CCR5-1like that contains part of the CCR1 receptor N-terminus (ETTTDYDE) resembles CCR1 with regard to acidic amino acid content and spacing, but they are not the same.
BRET measurements of Gαi signaling and β-arrestin recruitment: Cells were seeded in 6-well plates (500,000 cells/well) and transiently transfected the following day. For BRET measurements of Gαi signaling, cells were transfected with vectors encoding the human chemokine receptors as indicated (160 ng/well) and the CAMYEL sensor (cAMP sensor, YFP-Epac-RLuc) (840 ng/well) using Lipofectamine (6 µL/well). Briefly, DNA was dissolved in 125 µL OPTI-MEM and Lipofectamine was dissolved in 125 µL OPTI-MEM. The DNA and Lipofectamine solutions were combined into a transfection mixture. The transfection mixture was added dropwise to cells incubated in OPTI-MEM (1 mL/well). Transfections were terminated after 5 h by adding 1 mL of fresh culture medium on top of the OPTI-MEM. The following day the cells were loosened from the plates in PBS with 5 mM glucose and subsequently aliquoted in white 96-well iso plates (~25,000 cells/well). When using C21TP variants and defense peptides (hBD2 and histatin), these were added to a final concentration of 10 μM/well, while an equal amount of PBS was added to control cells. The bioluminescence substrate coelenterazine was added to a final conc. of 5 µM. After 10 min, varying ligand concentrations were added. For BRET measurements of Gαi signaling, forskolin was added 5 min after the addition of the ligand, to a final conc. of 5 µM. The plates were kept in the dark at all times. A Perkin Elmer Envision machine was used for measuring the emission signals at 530 and 480 nm. The BRET signal is determined as the ratio eYFP (530 nm)/Rluc (480 nm).
BRET principle with CAMYEL: For quantification of signaling initiated immediately downstream of receptor activation, we used the cAMP binding CAMYEL sensor to perform bioluminescence resonance energy transfer (BRET) based assays. In this assay we measure changes in intracellular cAMP levels in response to receptor activation. Activation of chemokine receptors lead to a decrease in cAMP through inhibition of adenylate cyclase (AC). In the current setup we initially add forskolin that stimulates AC directly to induce an increase in intracellular cAMP, and we then measure the ability of a ligand (chemokine) to counteract the forskolin-induced increase in cAMP. The cAMP sensor (CAMYEL cAMP sensor, YFP-Epac-RLuc) carries the donor Renilla luciferase (Rluc) and the acceptor YFP. Coelenterazine is a substrate for Rluc that will emit light at around 475 nm upon enzymatic cleavage catalyzed by Rluc. When Rluc and YFP are in close proximity, the energy from the emitted light from coelenterazine can be transferred to YFP, resulting in an excitation of YFP, leading to a BRET signal around 525 nm. […]

[1] = HEK293 WT, DeltaSia and sC cells, 10 µM peptide

boosting of CCL3 signaling via M1-CCR5-1like [1] | boosting of CCL8 signaling via M1-CCR5-1like [1] | Substance | Gαi signaling via M1-CCR5-1like in DeltaSia and sC cells compared to WT cells (HEK293 DeltaSia and sC)
 |  | CCL5: human chemokine from Peprotech, overall basic | persists in DeltaSia and sC to almost the same high level as observed in WT cells
absent | absent | RKDRGASKTGKKGKGSKGCKRTERSQTPKGP [C21TP^81-111] | 
